In ChEMBL document CHEMBL1240295, “Specificity and mechanism of action of some commonly used protein kinase inhibitors” (Biochem J, 2000):

Key:
[1] = molecular target: Casein kinase II (Homo sapiens) (UniProt P67870+P68400+P19784); settings: Sf9, at 10 µM
Description: Inhibition of His-tagged human CK2 expressed in Sf9 cells at 10 uM

[2] = molecular target: Protein kinase C alpha type (Homo sapiens, UniProt P17252); settings: at 10 µM
Description: Inhibition of His-tagged human PKCalpha expressed in Escherichia coli at 10 uM

Rattus norvegicus = species on record: Rattus norvegicus; settings: at 10 µM
Description: Inhibition of rat liver AMPK at 10 uM

[3] = molecular target: Tyrosine-protein kinase Lck (Homo sapiens) (UniProt P06239); settings: Sf9, at 10 µM
Description: Inhibition of His-tagged human LCK expressed in Sf9 cells at 10 uM

[4] = molecular target: Mitogen-activated protein kinase 8 (Homo sapiens) (UniProt P45983); settings: at 10 µM
Description: Inhibition of Gst-tagged human JNK1a1 expressed in Escherichia coli at 10 uM

[5] = molecular target: Mitogen-activated protein kinase 14 (Homo sapiens) (UniProt Q16539); settings: at 10 µM
Description: Inhibition of Gst-tagged human SAPK2a/p38 expressed in Escherichia coli at 10 uM

[6] = molecular target: T1, MAP kinase-activated protein kinase 5 (Homo sapiens) (UniProt Q8IW41); settings: Sf9, at 10 µM
T1 sequence (whole entry): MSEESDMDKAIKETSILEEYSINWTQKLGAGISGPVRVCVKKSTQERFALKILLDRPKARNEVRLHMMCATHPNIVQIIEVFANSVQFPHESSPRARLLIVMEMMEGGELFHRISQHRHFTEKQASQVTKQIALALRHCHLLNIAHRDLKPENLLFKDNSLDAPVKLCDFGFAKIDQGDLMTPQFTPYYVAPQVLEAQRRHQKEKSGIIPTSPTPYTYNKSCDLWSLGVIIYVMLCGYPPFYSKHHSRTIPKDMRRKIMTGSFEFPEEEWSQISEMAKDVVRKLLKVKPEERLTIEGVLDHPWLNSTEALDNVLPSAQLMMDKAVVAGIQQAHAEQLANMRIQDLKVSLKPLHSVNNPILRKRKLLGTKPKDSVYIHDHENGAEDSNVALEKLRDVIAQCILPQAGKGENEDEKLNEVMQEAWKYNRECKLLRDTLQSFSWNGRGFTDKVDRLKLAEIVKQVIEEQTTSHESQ
Description: Inhibition of His-tagged human PRAK expressed in Sf9 cells at 10 uM

[7] = molecular target: Mitogen-activated protein kinase 11 (Homo sapiens) (UniProt Q15759); settings: at 10 µM
Description: Inhibition of Gst-tagged human SAPK2b/p38--beta-2 expressed in Escherichia coli at 10 uM

[8] = molecular target: Ribosomal protein S6 kinase alpha-5 (Homo sapiens, UniProt O75582); settings: Sf9, at 10 µM
Description: Inhibition of His-tagged human MSK1 expressed in Sf9 cells at 10 uM

[9] = molecular target: T2, Serine/threonine-protein kinase Sgk1 (Homo sapiens) (UniProt O00141); settings: Sf9, at 10 µM
T2 sequence (whole entry): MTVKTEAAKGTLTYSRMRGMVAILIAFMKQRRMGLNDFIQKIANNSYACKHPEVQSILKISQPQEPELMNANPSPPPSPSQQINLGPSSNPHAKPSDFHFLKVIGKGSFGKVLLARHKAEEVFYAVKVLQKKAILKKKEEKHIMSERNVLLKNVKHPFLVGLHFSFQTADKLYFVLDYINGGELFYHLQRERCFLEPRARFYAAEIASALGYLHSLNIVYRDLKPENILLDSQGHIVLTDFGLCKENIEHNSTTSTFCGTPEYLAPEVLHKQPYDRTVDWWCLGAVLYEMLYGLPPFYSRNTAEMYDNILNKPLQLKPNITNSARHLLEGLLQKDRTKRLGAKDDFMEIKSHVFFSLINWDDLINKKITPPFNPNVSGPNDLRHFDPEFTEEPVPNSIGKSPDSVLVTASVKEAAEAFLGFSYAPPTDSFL
Description: Inhibition of His-tagged human SGK expressed in Sf9 cells at 10 uM

[10] = molecular target: T3, Mitogen-activated protein kinase 13 (Homo sapiens) (UniProt O15264); settings: at 10 µM
T3 sequence (whole entry): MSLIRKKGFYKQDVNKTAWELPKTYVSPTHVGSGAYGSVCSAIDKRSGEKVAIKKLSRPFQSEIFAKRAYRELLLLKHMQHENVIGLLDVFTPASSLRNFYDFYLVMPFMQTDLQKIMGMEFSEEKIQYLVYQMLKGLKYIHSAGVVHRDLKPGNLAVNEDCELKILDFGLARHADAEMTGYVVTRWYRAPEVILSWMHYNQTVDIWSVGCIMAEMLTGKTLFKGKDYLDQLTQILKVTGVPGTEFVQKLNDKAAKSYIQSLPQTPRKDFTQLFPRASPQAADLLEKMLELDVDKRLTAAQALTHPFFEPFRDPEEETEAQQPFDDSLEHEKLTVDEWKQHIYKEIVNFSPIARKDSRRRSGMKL
Description: Inhibition of Gst-tagged human SAPK4/p38delta expressed in Escherichia coli at 10 uM

[11] = molecular target: MAP kinase-activated protein kinase 2 (Homo sapiens, UniProt P49137); settings: at 10 µM
Description: Inhibition of Gst-tagged human MAPKAPK2 expressed in Escherichia coli at 10 uM

[12] = molecular target: Mitogen-activated protein kinase 1 (Homo sapiens) (UniProt P28482); settings: at 10 µM
Description: Inhibition of Gst-tagged human MAPK2/ERK2 expressed in Escherichia coli at 10 uM

Bos taurus = species on record: Bos taurus; settings: at 10 µM
Description: Inhibition of bovine heart PKA at 10 uM

[13] = molecular target: Glycogen synthase kinase-3 beta (Homo sapiens, UniProt P49841); settings: Sf21, at 10 µM
Description: Inhibition of His-tagged human GSK3b expressed in Sf21 cells at 10 uM

Mus musculus = species on record: Mus musculus; assay: Inhibition of EGF-induced activation of MKK1 in mouse […] at 2 nM; type: cell-based
[14] = molecular target: Rho-associated protein kinase 2 (Rattus norvegicus) (UniProt Q62868); settings: Sf9, at 10 µM
Description: Inhibition of rat ROCK2 expressed in Sf9 cells at 10 uM

[15] = molecular target: T4, Mitogen-activated protein kinase 12 (Homo sapiens) (UniProt P53778); settings: at 10 µM
T4 sequence (whole entry): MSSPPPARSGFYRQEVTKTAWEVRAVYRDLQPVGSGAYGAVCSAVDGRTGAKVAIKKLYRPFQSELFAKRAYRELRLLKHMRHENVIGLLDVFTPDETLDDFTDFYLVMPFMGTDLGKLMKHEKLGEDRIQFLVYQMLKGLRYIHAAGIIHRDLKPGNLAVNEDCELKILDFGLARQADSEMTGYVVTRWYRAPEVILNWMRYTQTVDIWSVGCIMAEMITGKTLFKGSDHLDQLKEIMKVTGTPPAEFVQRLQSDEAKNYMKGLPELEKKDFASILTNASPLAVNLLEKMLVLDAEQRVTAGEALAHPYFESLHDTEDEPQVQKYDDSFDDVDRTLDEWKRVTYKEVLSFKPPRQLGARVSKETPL
Description: Inhibition of Gst-tagged human SAPK3/p38gamma expressed in Escherichia coli at 10 uM

[16] = molecular target: T5, Serine/threonine-protein kinase Chk1 (Homo sapiens) (UniProt O14757); settings: at 10 µM
T5 sequence (whole entry): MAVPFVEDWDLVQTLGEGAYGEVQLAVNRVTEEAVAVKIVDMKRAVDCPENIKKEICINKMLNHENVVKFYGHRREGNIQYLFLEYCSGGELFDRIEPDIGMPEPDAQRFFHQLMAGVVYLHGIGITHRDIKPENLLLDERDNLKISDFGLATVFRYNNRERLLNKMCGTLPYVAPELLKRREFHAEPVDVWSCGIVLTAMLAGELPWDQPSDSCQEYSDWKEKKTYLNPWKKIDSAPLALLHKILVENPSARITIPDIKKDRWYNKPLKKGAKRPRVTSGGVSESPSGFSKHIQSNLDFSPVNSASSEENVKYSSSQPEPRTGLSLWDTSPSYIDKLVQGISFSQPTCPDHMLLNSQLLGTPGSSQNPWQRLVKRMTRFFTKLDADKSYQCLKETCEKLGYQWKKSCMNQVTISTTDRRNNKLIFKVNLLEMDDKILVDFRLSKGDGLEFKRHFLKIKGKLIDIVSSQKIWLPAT
Description: Inhibition of His-tagged human CHK1 expressed in Escherichia coli at 10 uM

[17] = molecular target: RAC-alpha serine/threonine-protein kinase (Homo sapiens) (UniProt P31749); settings: Sf9, at 10 µM
Description: Inhibition of human PKBalpha expressed in SF9 cells at 10 uM

Oryctolagus cuniculus [18] = species on record: Oryctolagus cuniculus; settings: Muscle tissue, at 10 µM
Description: Inhibition of PHK from rabbit skeletal muscle at 10 uM

Oryctolagus cuniculus [19] = species on record: Oryctolagus cuniculus; settings: Muscle tissue, at 10 µM; remark: listed apart in the source
Description: Inhibition of MAPKAPK1b from rabbit skeletal muscle at 10 uM

[20] = Inhibition of MAPKAPK1b from rabbit skeletal muscle; type: tissue-based, Oryctolagus cuniculus, Muscle tissue
[21] = molecular target: Ribosomal protein S6 kinase beta-1 (Homo sapiens, UniProt P23443); settings: at 10 µM
Description: Inhibition of His-tagged human S6K1 expressed in Escherichia coli at 10 uM

[22] = Inhibition of PHK from rabbit skeletal muscle; type: tissue-based, Oryctolagus cuniculus, Muscle tissue
Oryctolagus cuniculus [23] = species on record: Oryctolagus cuniculus; settings: at 10 µM
Description: Inhibition of rabbit MKK1 expressed in Escherichia coli at 10 uM

[24] = molecular target: Serine/threonine-protein kinase N2 (Homo sapiens) (UniProt Q16513); assay: Inhibition of His-tagged human PRK2 expressed in HEK293 cells at 10 uM; type: cell-based

Chain of Mitogen-activated protein kinase 14 (Homo sapiens) (Q16539 whole entry): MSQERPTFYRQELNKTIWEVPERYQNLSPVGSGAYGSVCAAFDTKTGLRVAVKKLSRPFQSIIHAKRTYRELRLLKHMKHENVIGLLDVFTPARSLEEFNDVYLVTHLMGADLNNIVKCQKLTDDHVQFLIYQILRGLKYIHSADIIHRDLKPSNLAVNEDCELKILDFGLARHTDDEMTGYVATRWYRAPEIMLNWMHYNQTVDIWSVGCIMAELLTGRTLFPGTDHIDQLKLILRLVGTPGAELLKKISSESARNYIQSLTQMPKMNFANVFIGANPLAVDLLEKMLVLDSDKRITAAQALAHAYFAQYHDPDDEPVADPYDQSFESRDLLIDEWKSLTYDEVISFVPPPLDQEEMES
Chain of Mitogen-activated protein kinase 11 (Homo sapiens) (Q15759 whole entry): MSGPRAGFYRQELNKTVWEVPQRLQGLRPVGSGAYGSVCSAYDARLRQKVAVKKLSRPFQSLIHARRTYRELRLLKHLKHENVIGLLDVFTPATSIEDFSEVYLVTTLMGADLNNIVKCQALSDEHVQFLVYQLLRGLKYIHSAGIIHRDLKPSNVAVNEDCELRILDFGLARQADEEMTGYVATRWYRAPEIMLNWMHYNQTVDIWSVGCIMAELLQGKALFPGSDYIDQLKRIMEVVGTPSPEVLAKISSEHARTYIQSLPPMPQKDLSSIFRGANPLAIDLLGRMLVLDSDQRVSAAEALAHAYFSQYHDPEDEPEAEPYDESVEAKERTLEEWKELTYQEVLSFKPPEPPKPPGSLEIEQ
Chain of Rho-associated protein kinase 2 (Rattus norvegicus) (Q62868 whole entry, looked up): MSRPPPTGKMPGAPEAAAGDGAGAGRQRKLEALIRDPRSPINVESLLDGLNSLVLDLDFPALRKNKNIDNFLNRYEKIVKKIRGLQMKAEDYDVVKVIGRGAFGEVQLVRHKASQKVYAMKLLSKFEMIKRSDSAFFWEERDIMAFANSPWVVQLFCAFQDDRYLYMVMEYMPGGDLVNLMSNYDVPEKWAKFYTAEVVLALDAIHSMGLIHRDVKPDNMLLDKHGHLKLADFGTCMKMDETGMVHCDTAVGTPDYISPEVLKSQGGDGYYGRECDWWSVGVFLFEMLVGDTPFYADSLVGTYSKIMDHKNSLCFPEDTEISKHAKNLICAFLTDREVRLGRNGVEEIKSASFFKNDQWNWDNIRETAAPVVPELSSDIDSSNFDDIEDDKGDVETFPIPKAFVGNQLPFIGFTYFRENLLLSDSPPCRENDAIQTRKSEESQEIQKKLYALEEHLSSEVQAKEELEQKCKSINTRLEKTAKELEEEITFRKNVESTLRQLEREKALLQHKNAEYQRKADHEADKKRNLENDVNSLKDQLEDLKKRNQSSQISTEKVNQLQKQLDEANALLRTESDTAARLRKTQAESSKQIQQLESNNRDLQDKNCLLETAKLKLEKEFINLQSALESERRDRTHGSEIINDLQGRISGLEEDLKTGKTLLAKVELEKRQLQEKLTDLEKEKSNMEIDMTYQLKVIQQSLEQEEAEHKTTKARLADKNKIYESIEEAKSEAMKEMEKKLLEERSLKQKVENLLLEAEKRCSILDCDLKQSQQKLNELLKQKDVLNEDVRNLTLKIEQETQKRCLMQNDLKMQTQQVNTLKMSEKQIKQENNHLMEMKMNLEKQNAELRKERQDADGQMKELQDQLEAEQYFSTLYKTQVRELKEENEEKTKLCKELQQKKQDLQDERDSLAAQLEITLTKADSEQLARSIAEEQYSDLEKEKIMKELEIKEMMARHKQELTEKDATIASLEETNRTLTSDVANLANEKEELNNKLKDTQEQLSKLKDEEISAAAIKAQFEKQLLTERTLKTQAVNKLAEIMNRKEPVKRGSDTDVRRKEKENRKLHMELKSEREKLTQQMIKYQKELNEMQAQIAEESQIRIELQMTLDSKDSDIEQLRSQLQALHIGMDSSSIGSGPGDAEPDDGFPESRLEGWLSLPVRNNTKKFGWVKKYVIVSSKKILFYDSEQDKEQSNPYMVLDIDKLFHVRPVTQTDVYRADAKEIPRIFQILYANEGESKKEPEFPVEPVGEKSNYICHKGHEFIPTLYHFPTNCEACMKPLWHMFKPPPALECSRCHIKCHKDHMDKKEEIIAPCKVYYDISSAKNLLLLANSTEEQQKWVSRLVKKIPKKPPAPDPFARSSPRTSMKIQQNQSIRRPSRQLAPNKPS
Chain of RAC-alpha serine/threonine-protein kinase (Homo sapiens) (P31749 whole entry): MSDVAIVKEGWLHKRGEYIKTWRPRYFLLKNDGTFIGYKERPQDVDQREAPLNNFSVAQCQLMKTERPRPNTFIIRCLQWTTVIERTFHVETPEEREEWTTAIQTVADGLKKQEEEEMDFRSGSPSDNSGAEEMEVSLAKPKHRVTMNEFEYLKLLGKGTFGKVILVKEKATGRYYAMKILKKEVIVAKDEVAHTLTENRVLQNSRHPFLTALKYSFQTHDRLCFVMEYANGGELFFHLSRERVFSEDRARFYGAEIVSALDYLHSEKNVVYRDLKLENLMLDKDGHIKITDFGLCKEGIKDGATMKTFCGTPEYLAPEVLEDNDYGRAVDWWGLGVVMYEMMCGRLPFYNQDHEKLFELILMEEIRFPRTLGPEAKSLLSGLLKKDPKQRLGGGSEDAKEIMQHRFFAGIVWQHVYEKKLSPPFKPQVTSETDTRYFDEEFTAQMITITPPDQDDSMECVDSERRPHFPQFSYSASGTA
Chain of MAP kinase-activated protein kinase 2 (P49137 whole entry, looked up): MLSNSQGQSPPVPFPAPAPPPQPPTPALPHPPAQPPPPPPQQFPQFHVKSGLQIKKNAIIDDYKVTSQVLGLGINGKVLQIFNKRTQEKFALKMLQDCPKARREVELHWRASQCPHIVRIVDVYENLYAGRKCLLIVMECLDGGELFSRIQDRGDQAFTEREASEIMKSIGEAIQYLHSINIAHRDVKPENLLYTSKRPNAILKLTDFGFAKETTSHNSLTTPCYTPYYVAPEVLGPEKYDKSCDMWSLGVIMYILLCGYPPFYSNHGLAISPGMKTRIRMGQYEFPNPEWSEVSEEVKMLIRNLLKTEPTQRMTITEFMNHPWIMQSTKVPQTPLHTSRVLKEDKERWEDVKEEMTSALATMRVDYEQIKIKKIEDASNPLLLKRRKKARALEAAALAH
Chain of Ribosomal protein S6 kinase alpha-5 (O75582 whole entry, looked up): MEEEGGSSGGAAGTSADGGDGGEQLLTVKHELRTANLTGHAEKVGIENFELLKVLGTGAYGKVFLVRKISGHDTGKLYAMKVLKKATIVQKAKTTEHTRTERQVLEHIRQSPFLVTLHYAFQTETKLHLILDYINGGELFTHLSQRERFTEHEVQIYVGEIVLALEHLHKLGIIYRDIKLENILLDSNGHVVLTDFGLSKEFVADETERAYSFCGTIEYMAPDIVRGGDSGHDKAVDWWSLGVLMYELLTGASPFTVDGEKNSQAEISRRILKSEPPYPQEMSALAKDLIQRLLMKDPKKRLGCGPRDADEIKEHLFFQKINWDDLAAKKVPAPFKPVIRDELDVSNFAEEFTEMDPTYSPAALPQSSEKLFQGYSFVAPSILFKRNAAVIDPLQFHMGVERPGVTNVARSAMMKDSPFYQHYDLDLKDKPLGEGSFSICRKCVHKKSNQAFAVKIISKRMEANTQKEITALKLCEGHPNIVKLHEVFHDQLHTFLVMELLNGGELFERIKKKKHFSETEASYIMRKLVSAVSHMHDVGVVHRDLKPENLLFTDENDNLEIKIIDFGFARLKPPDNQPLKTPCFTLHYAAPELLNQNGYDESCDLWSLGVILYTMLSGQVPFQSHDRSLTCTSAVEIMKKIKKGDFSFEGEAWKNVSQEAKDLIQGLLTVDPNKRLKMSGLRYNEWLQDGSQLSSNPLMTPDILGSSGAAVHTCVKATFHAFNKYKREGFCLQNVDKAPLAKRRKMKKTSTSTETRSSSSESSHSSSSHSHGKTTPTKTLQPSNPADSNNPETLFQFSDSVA
Chain of Mitogen-activated protein kinase 1 (Homo sapiens) (P28482 whole entry): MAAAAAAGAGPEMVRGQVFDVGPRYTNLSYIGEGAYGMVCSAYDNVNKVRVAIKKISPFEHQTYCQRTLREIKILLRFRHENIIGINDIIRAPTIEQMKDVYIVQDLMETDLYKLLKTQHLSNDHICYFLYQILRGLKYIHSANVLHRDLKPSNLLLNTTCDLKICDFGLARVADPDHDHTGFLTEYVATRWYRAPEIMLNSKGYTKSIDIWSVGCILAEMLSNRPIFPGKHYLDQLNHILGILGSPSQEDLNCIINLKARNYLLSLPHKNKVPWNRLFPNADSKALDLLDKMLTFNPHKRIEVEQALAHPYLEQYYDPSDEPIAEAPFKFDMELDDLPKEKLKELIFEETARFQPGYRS

**Q.** Which residual activity [1] does the source give for O=C(NOCC1CC1)c1ccc(F)c(F)c1Nc1ccc(I)cc1Cl here?
**A.** The residual activity was 96%.

**Q.** And the residual activity [2]?
**A.** Its residual activity is 99%.

**Q.** What about the residual activity (Rattus norvegicus) of the same compound?
**A.** The residual activity was 89%.

**Q.** And the residual activity [3]?
**A.** The residual activity was 99%.

**Q.** And the residual activity [4]?
**A.** The residual activity was 102%.

**Q.** And the residual activity [5]?
**A.** The residual activity was 100%.

**Q.** And the residual activity [6]?
**A.** Its residual activity is 71%.

**Q.** And the residual activity [7]?
**A.** The residual activity was 119%.

**Q.** What about the residual activity [8] of the same compound?
**A.** The residual activity was 118%.

**Q.** What about the residual activity [9] of the same compound?
**A.** Its residual activity is 111%.

**Q.** And the residual activity [10]?
**A.** Its residual activity is 98%.

**Q.** And the residual activity [11]?
**A.** The residual activity was 98%.

**Q.** What about the residual activity [12] of the same compound?
**A.** Its residual activity is 107%.

**Q.** What about the residual activity (Bos taurus) of the same compound?
**A.** Its residual activity is 105%.

**Q.** And the residual activity [13]?
**A.** The residual activity was 83%.

**Q.** What about the inhibition (Mus musculus) of the same compound?
**A.** The inhibition was 50%.

**Q.** What about the residual activity [14] of the same compound?
**A.** Its residual activity is 107%.

**Q.** What about the residual activity [15] of the same compound?
**A.** Its residual activity is 100%.

**Q.** What about the residual activity [16] of the same compound?
**A.** The residual activity was 104%.

**Q.** And the residual activity [17]?
**A.** Its residual activity is 89%.

**Q.** And the level, % of control (Oryctolagus cuniculus [18])?
**A.** The level, % of control was 117%.

**Q.** For C[C@@H](N)[C@H]1CC[C@H](C(=O)Nc2ccncc2)CC1 [Y-27632], which residual activity [1] is on record?
**A.** Its residual activity is 98%.

**Q.** And the residual activity [2]?
**A.** The residual activity was 98%.

**Q.** What about the residual activity (Rattus norvegicus) of the same compound?
**A.** The residual activity was 95%.

**Q.** What about the level, % of control (Oryctolagus cuniculus [19]) of the same compound?
**A.** The level, % of control was 72%.

**Q.** What about the residual activity [4] of the same compound?
**A.** The residual activity was 98%.

**Q.** What about the residual activity [5] of the same compound?
**A.** The residual activity was 94%.

**Q.** What about the residual activity [6] of the same compound?
**A.** The residual activity was 104%.

**Q.** What about the residual activity [7] of the same compound?
**A.** Its residual activity is 107%.

**Q.** What about the residual activity [8] of the same compound?
**A.** Its residual activity is 57%.

**Q.** What about the IC50 [20] of the same compound?
**A.** Its IC50 is 19 µM.

**Q.** What about the residual activity [21] of the same compound?
**A.** The residual activity was 94%.

**Q.** And the residual activity [9]?
**A.** Its residual activity is 109%.

**Q.** What about the residual activity [10] of the same compound?
**A.** The residual activity was 95%.

**Q.** And the residual activity [11]?
**A.** Its residual activity is 99%.

**Q.** What about the IC50 [22] of the same compound?
**A.** Its IC50 is 44 µM.

**Q.** And the residual activity [12]?
**A.** The residual activity was 94%.

**Q.** What about the residual activity (Bos taurus) of the same compound?
**A.** The residual activity was 91%.

**Q.** And the residual activity [13]?
**A.** The residual activity was 92%.

**Q.** And the residual activity [14]?
**A.** Its residual activity is 13%.

**Q.** And the residual activity (Oryctolagus cuniculus [23])?
**A.** Its residual activity is 103%.

**Q.** And the residual activity [15]?
**A.** The residual activity was 100%.

**Q.** And the residual activity [16]?
**A.** The residual activity was 99%.

**Q.** What about the residual activity [17] of the same compound?
**A.** Its residual activity is 90%.

**Q.** What about the inhibition [24] of the same compound?
**A.** Its inhibition is 6%.

**Q.** What about the level, % of control (Oryctolagus cuniculus [18]) of the same compound?
**A.** The level, % of control was 81%.
